Values of other authors as cited in patent publication US7807193B2 (priority 2002, dated 2010).

Columns and labels:
[1] = patients having adult onset diabetes, drug treatment therapy versus insulin treatment
[2] = tested on: ob/ob mice; details: homozygous diabetic mouse model (ob/ob); U.S. application 20020037861 A1

SMILES	Mortality rates [1]	Levels of blood glucose, triglycerides, insulin and glycosylated hemoglobin versus control ob/ob mice not given topiramate [2]
CN(C)C(=N)N=C(N)N [metformin]	8%	
CC1(C)O[C@@H]2[C@@H](CO[C@@]3(COS(N)(=O)=O)OC(C)(C)O[C@@H]23)O1 [topiramate, 2,3:4,5-bis-O-(1-methylethylidene)-β-D-fructopyranose sulfamate]		significantly lower
